# Laboratory results: patent US20240415804A1, “METHOD OF TREATING PANCREATIC CANCER” (University of South Florida, priority 2022, published 2024)
# Assays:
# SHIP-1 [1] = details: API-treated OPC mice, previous findings (ref 12); cited from earlier work
# SHIP-1 [2] = test: SHIP-1 gene and protein expression in tumors of KC-HPC mice; assay type: in vivo, mouse; details: API 25 mg/kg IP three times per week for 17 days, vs vehicle
# Experimental: To build on these findings, the inventors then used a novel pancreatic cancer cell line, UN-KC-6141, that resembles human PC due to its expression of a mutated Kras and generated mice harboring these tumor cells, called KC-HPC mice. Such mice were treated with API at a dose of 25 mg/kg (IP) three times per week for 17 days. The inventors examined if API also targets miR-155 and regulates SHIP-1 in the tumors from KC-HPC mouse model.
# All female C57BL/6 mice (6-8 weeks of age) described in this study were purchased from Envigo (Indianapolis, IN, USA) and were acclimatize for one week in a pathogen-free animal facility (University of South Florida (USF) vivarium) before injections with PC cells. To generate heterotopic pancreatic cancer (HPC) models, mice were subcutaneously injected with 1.5×10^5 murine Panc02 (HPC mice) or 5×10^6 murine UN-KC-6141 cells (KC-HPC mice), in sterile 1× phosphate buffer saline (PBS), in the lower ventral abdomen, while control (CTRL) mice received sterile 1×PBS. […]
# Isolation of total RNA from digested pancreatic tumors and BM cells was performed using a RNeasy Mini Kit (Qiagen), according to the manufacturer's instructions. RT-PCR of quantified and normalized total RNA was performed using a High-Capacity cDNA RT Kit with an RNase Inhibitor (Applied Biosystems), according to the manufacturer's instructions. […]
# UN-KC-6141 cells = test: MTT cell viability assay, UN-KC-6141; assay type: cell-based, mouse; details: API 40 μM, 24 h, vs DMSO vehicle
# Experimental: The methyl thiazol tetrazolium (MTT) assay was performed as described previously^58. Briefly, MiaPaCa-2, Panc02 and UN-KC-6141 cells were seeded in 96-well plates at a density of 3000 cells/well and allowed to attach overnight. PC cells were then treated with API (40 μM) or DMSO (1%) as vehicle control for 24 h at 37° C. in 5% CO2 incubator. After 24 h, media was replaced with 20 μL of MTT (1 mg/mL) (Sigma-Aldrich) and incubated for 3 h at 37° C. in 5% CO2. MTT was replaced with DMSO, and absorbance was read at 570 nm.
# MiaPaCa-2, Panc02 and UN-KC-6141 cells (2×10^5) were grown in 2 mL of growth medium in a 6-well tissue culture plate for 18-24 h until 60-80% confluency. The following solutions were prepared: Solution A) For each transfection, diluted 1 μL of miRNA-155 inhibitors (1 μM) (Table 2) or scrambled negative control miRNA (1 μM) (Qiagen, Germantown, MD, USA) into 50 μL Opti-MEM Transfection Medium (Invitrogen, Waltham, MA, USA). Solution B) For each transfection, diluted 3 μL of Hi-Perfect Transfection Reagent into 50 μL Opti-MEM Transfection Medium. Solution A was added directly to Solution B, mixed gently and the mixture incubated for 10-15 min at room temperature. […]
# [3] = test system: heterotopic (H) mouse model of PC (HPC); details: earlier report (ref 55); cited from earlier work
smiles,measurement,setting,value
"O=c1cc(-c2ccc(O)cc2)oc2cc(O)cc(O)c12 [API, 40,5,7-Trihydroxyflavone, 5,7-Dihydroxy-2-(4-hydroxyphenyl)-4-benzopyrone]",SHIP-1 gene expression in pancreatic tumor,SHIP-1 [1],increased
same,SHIP-1 protein expression in pancreatic tumor,SHIP-1 [1],increased
same,SHIP-1 gene expression in tumor,SHIP-1 [2],significantly increased
same,SHIP-1 protein expression in tumor,SHIP-1 [2],significantly increased
same,cell viability (MTT),UN-KC-6141 cells,significantly inhibited
same,survival,[3],increased
same,tumor growth,[3],reduced
